A short description of assay [1]: In situ calcium ion-selective electrode (ISE) measurement of COM crystallization. Particulars: for percent reduction in COM growth rate: 20 μg/ml additive, supersaturated calcium oxalate S=5.4, stirred, ISE slope in first 40 min vs control; for increase in peptide efficacy on replacing L-Ala spacer with L-Asp binder (relative to peptide D7): ISE, 20 μg/ml, series D7, D8, D9. As to the method:
The COM growth rate was measured as the slope (dCa/dt) of decreasing Ca^2+ concentration within the first 40 min of crystallization. […] The percent reduction in COM growth rate was calculated by comparing the ISE slopes of peptides and control using the formula, Percent Reduction=[1−(dCa/dt)peptide/(dCa/dt)control]×100%. Data are averages of 2 or 3 measurements (error bars equal two standard deviations);
COM crystals for bulk crystallization studies were synthesized using a reported procedure that produces micron-sized crystals with large basal (100) surfaces. COM crystals prepared with molar composition 0.7 mM CaCl2: 0.7 mM Na2C2O4: 150 mM NaCl are referred to as the control. Growth solutions prepared with peptides used 20 μg/ml of the additive (unless otherwise stated).
As such, measurements reported herein were conducted at a single peptide concentration (20 μg/ml) to assess COM growth inhibition. To facilitate comparison of peptides in Table 1, Applicants calculated the percent reduction in COM growth rate using the relative difference in ISE slopes (units of ppm Ca^2+ per time) for peptide and control samples during the first 40 min of crystallization.
The slope of ISE curves (FIG. 2A) is the temporal change in free Ca^2+ concentration due to COM nucleation (primary and secondary) and crystal growth. Deconvoluting these two processes (nucleation and growth) from ISE data is nontrivial, particularly if one wishes to extract detailed kinetic information of COM growth rates. […] In the current study, the distinct advantage of ISE compared to more traditional approaches is its ease of use and the rapid time for data acquisition that enables high-throughput analysis of large peptide libraries.
A quantitative comparison of peptide efficacy for inhibiting COM crystallization was performed using in situ ISE measurements. The percent inhibition in COM growth rate was calculated using the relative difference in ISE slopes in the presence of 20 μg/mL peptide. […] The effect of Asp with Glu in peptide sequences was measured on COM growth inhibition (Table 2).

Assay [2] can be described thus: Bulk crystallization studies of COM crystal size and habit (optical microscopy, SEM, AFM). Particulars: for COM crystal habit / morphology: bulk crystallization with 20 μg/ml peptide. As to the method:
FIGS. 4A-4B show macroscopic characterization of COM crystals from bulk crystallization in solutions of 0.5 mM CaC2O4 and 20 μg/ml peptide. Optical microscopy was used to measure: Percent distribution of elongated hexagonal platelet (shaded bars) and diamond platelet (pattern bars) crystal morphologies (FIG. 4A); and length of the COM (100) basal surface measured along the direction (i.e. apical tip-to-tip distance) for hexagonal and diamond morphologies (FIG. 4B). Data in (FIG. 4A) and (FIG. 4B) are the average of three separate crystallization experiments performed at 60° C. for 3 days (error bars equal one standard deviation). Data for peptide D4 (diamond habit) was omitted based on too few crystals for statistical analysis;
COM crystals for bulk crystallization studies were synthesized using a reported procedure that produces micron-sized crystals with large basal (100) surfaces. COM crystals prepared with molar composition 0.7 mM CaCl2: 0.7 mM Na2C2O4: 150 mM NaCl are referred to as the control. Growth solutions prepared with peptides used 20 μg/ml of the additive (unless otherwise stated). The crystals were characterized by optical microscopy using a Leica DM2500-M microscope, scanning electron microscope (SEM) using a FEI 235 Dual-Beam Focused Ion-beam instrument, atomic force microscopy (AFM) using an Asylum MFP-3D-SA instrument (Santa Barbara, Calif.), and a calcium ion-selective electrode (ISE, ThermoScientific).
ISE measurements can be used to screen peptide efficacy, but provide little information regarding the specificity of peptide binding to different surfaces of COM crystals. To this end, Applicants used a second analysis step to identify the effect of peptides on COM crystal size and habit. The influence of the peptide library on macroscopic properties of COM crystals was assessed using bulk crystallization studies and optical and scanning electron microscopy to characterize COM crystals grown in the presence of peptides. In vitro, COM crystallization yields elongated hexagonal platelets with {100} basal surfaces bounded by {010} and crystallographically equivalent {121} apical surfaces (FIG. 3A). […] Applicants observed that multiple peptides in the library reduced growth along the directions, which decreased the crystal aspect ratio (length-to-width) and shifted the morphology from hexagonal to diamond platelets. This change in crystal habit can be attributed to the preferential binding of peptides to COM {121} surfaces, which slows growth along the naturally fast growth directions within the (100) plane.
To more systematically assess the surface topography of COM crystals, Applicants used atomic force microscopy (AFM) to probe the effect of peptides on COM (100) surface roughness. Crystals extracted from control and peptide D5 batches were prepared on AFM sample disks and imaged in air. The RMS roughness for (100) surfaces of hexagonal-shaped crystals from the control and test peptide D5 were approximately 1.0 and 4.3 nm, respectively.
Crystal batches prepared in bulk studies were analyzed using optical microscopy to quantify changes in COM crystal size and aspect ratio. […] Although there were clear differences in the percent population of diamond-shaped crystals among peptides tested in this study, Applicants observed that the size of diamond crystals were generally the same, irrespective of peptide sequence (FIG. 4B). The majority of COM hexagonal platelets in peptide samples had similar size and aspect ratio as the control (here Applicants only report the length of COM crystals in FIG. 4B). A notable exception, however, was peptide D4, which produced a 22% increase in the length-to-width aspect ratio of COM hexagonal crystals, and an increase in the length from 35 μm (control) to 75 μm (peptide D4).

A short description of assay [3]: High-throughput colorimetric calcium depletion assay (crystallization half-time). Particulars: 37° C., crystallization volume 600 μL, shaking; logistic fit. As to the method: Free calcium concentration in the crystallization solution was measured by a colorimetric assay using Quantichrome DICA 500 Calcium assay kit (BioAssay Systems, Hayward, Calif.). Standard solutions (0, 0.1, 0.2, 0.3, 0.4, 0.5, and 1 mM) were prepared using calcium solutions provided with the kit. Detection reagent was prepared by mixing equal volumes of reagent A and reagent B according to manufacturer's instructions. A 10 μL sample was withdrawn from the top of each crystallization well without disturbing the bottom and dispensed into a 96-well microplate. 100 μL of detection reagent was added to each well and incubated for 3 minutes at room temperature. The absorbance was measured at 612 nm using Biotek Synergy H4 microplate reader (BioTek, Winooski, Vt.). Calcium concentration was determined using a calibration curve prepared from standard calcium solutions.
Time course of depletion of free calcium in the crystallization solution, normalized to the initial concentration, was fitted to a nonlinear logistic function using OriginPro Software (Origin Lab, Northhampton, Mass.). The logistic function relating calcium concentration to time is given by
where [Ca]t is the normalized calcium concentration at time t, A1 is the normalized initial supersaturation concentration (i.e at t=0), A2 is the normalized equilibrium concentration (i.e. at t=∞), p is the hill coefficient which represents slope of the curve at midpoint, and t1/2 is the crystallization half-time (CHT), defined as the time at which crystallization is 50% complete (i.e. [Ca]t1/2=[…]). A1 was fixed at 1, and A2, p and t1/2 were obtained from fitting the data to equation 1. CHT was used as a measure of inhibition potentials of the peptides. A one-way ANOVA in combination with Tukey post hoc test at p<0.05 level was used to probe statistical significance. Applicants' studied the effects of experimental parameters including volume, shaking and temperature on crystallization in designing a high-throughput screening assay. Applicants have shown the logistic model effectively represents the three phases: induction, crystal growth and equilibrium observed in our setup, and CHT (t1/2) can be used as a measure of efficacy of potential crystal growth modifiers. The peptide library screened comprised of Asp and Ala residues (peptides D1-D13) at optimized assay conditions of 37° C., crystallization volume of 600 μL in a shaking environment. […] The high throughput of the assay provides the opportunity to assess the growth modulation potential of crystal growth modifiers at varying modifier concentrations, supersaturations and ionic strengths with relative ease. […] Finally, the assay can be translated to other crystallization systems in a relatively straightforward fashion for rational design and discovery of growth modifiers for specific applications.

The mark [4] stands for this setting: Calcium ISE measurements of COM growth at room temperature, Glu-Ala peptide library.
Setting [5] is: ISE slopes in the presence of 20 μg/mL peptide, comparison X = D vs X = E.

The values below come from US10246489B2, “Peptide inhibitors of calcium oxalate monohydrate crystallization and uses thereof” (UNIVERSITY OF HOUSTON, priority 2013, dated 2019).

Entries after “also recorded” stand apart in the source; their conditions may differ. A value given as a limit tells only on which side of the number the result lay.

As to “A-E-A-A-A-E-E-A-A-A-E-A-A-A-E-E-A-A (AEAAAEEAAAEAAAEEAA; Synthesized Calcium oxalate monohydrate inhibitory polypeptide) [E5]”, the “% inhibition” value in assay [1] (setting [4]) and in assay [1] (setting [5]) was 36 ± 21% each time.
Regarding “A-E-A-A-E-A-A-A-E-A-A-E-E-A-A-E-A-A (AEAAEAAAEAAEEAAEAA; Synthesized Calcium oxalate monohydrate inhibitory polypeptide) [E6]”, the “% inhibition” value in assay [1] (setting [4]) and in assay [1] (setting [5]) was 52 ± 16% each time. Moreover, the “COM crystal habit / morphology” value in assay [2] (SEM) is “polydisperse distribution of crystals; also recorded: less effective than E7”.
Take “A-E-A-A-E-A-A-E-A-A-E-A-A-E-A-A-E-A (AEAAEAAEAAEAAEAAEA; Synthesized Calcium oxalate monohydrate inhibitory polypeptide) [E3]”: in assay [1] (setting [5]), the “% inhibition” value was found to be 40 ± 18%.
As to “A-E-A-A-E-E-A-A-A-A-A-A-E-A-A-E-A-A (AEAAEEAAAAAAEAAEAA; Synthesized Calcium oxalate monohydrate inhibitory polypeptide) [E7]”, in assay [2] (SEM), the “COM crystal habit / morphology” value is reported as “polydisperse distribution of crystals”.
Turning to “AADAAAAADDAAAADAAA (Synthesized Calcium oxalate monohydrate inhibitory polypeptide) [D2]”, in assay [3], the “CHT (hr), crystallization half-time” value is 3.533 h.
“ADAAADAADAADDAADAA (Synthesized Calcium oxalate monohydrate inhibitory polypeptide) [D3]”: in assay [3], the “CHT (hr), crystallization half-time” value was determined as 4.142 h.
Turning to “ADAAADDAAAAAAAADAA (Synthesized Calcium oxalate monohydrate inhibitory polypeptide) [D7]”, in assay [3], the “CHT (hr), crystallization half-time” value is 5.771 h. The “percent reduction in COM growth rate” value in assay [1] is listed as less than 1%. Besides, in assay [2] (SEM, 20 μg/ml peptide), the “[100] thickness of hexagonal platelets relative to control” value is “decreased the [100] thickness of hexagonal platelets by nearly a factor of two”.
Take “ADAAADDAAADAAAADAA (Synthesized Calcium oxalate monohydrate inhibitory polypeptide) [D8]”: in assay [3], the “CHT (hr), crystallization half-time” value is 4.792 h. In addition, in assay [1], the “percent reduction in COM growth rate” value is roughly 6% and the “increase in peptide efficacy on replacing L-Ala spacer with L-Asp binder (relative to peptide D7)” value was “an order of magnitude increase in efficacy”. Besides, the “percentage of diamond-shaped crystals in total crystal population” value in assay [2] (20 μg/ml peptide, 60° C. for 3 days, optical microscopy, average of three experiments) was “largest populations of diamond-shaped crystals”. Besides, the “population of diamond crystals on doubling peptide concentration” value in assay [2] (concentration increased from 20 to 40 μg/ml) is recorded as “did not observe an appreciable increase in the population of diamond crystals”.
Regarding “ADAAADDAAADAAADDAA (Synthesized Calcium oxalate monohydrate inhibitory polypeptide) [D9]”, the “CHT (hr), crystallization half-time” value in assay [3] stood at 7.277 h. Besides, in assay [1], the “percent reduction in COM growth rate” value worked out at 40% and the “increase in peptide efficacy on replacing L-Ala spacer with L-Asp binder (relative to peptide D7)” value is roughly 70. Further, the “% inhibition” value in assay [1] (setting [5]) amounted to 36 ± 8%.
“ADAAADDDAAADAAADDD (Synthesized Calcium oxalate monohydrate inhibitory polypeptide) [D6]”: the “CHT (hr), crystallization half-time” value in assay [3] stood at 5.041 h. The “factor of increase of the [001] length of hexagonal COM crystals relative to the control” value in assay [2] (20 μg/ml peptide) is 1.5.
In the case of “ADAADAAADAADDAADAA (Synthesized Calcium oxalate monohydrate inhibitory polypeptide) [D10]”, in assay [3], the “CHT (hr), crystallization half-time” value worked out at 6.054 h. For the same substance, in assay [1] (setting [5]), the “% inhibition” value is given as 36 ± 5%.
Consider “ADAADDAAAAAADAADAA (Synthesized Calcium oxalate monohydrate inhibitory polypeptide) [D11]”, for which the “CHT (hr), crystallization half-time” value in assay [3] is 5.767 h. Also, the “COM crystal habit / morphology” value in assay [2] (SEM) was “large {121} surface area”.
For the substance “ADADADADADADADADAD (Synthesized Calcium oxalate monohydrate inhibitory polypeptide) [D13]”, the “CHT (hr), crystallization half-time” value in assay [3] came out at 8.114 h.
Turning to “ADDAADAADAADDAADDA (Synthesized Calcium oxalate monohydrate inhibitory polypeptide) [D12]”, the “CHT (hr), crystallization half-time” value in assay [3] was 7.135 h.
Consider “DDDAAAAADDDAAAAADD (Synthesized Calcium oxalate monohydrate inhibitory polypeptide) [D1]”, for which the “CHT (hr), crystallization half-time” value in assay [3] stood at 6.482 h. Moreover, in assay [2] (20 μg/ml peptide), the “factor of increase of the [001] length of hexagonal COM crystals relative to the control” value was 2.0. Further, the “COM crystal habit / morphology” value in assay [2] (SEM) is listed as “small {121} surface area”.

Usually % inhibition stands for the share of the control response that was lost under treatment.
